Reference: paper PMC8893300, “A Dynamic Mass Redistribution Assay for the Human Sweet Taste Receptor Uncovers G-Protein Dependent Biased Ligands” (Frontiers in Pharmacology, 2022)
Where two headings read alike, the source gives them in different places.

Tests used:
Type in all cases: cell-based
[1] = target: T1, human sweet taste receptor (hT1R2/hT1R3) (Homo sapiens, UniProt Q7RTX0+Q8TE23); experiment: DMR assay (Epic reader) on R2/R3 U2OS cells, endogenous G proteins; conditions: for EC50: peak DMR response
T1 construct: expressed in transfected cells
T1 sequence (Q8TE23 20-839): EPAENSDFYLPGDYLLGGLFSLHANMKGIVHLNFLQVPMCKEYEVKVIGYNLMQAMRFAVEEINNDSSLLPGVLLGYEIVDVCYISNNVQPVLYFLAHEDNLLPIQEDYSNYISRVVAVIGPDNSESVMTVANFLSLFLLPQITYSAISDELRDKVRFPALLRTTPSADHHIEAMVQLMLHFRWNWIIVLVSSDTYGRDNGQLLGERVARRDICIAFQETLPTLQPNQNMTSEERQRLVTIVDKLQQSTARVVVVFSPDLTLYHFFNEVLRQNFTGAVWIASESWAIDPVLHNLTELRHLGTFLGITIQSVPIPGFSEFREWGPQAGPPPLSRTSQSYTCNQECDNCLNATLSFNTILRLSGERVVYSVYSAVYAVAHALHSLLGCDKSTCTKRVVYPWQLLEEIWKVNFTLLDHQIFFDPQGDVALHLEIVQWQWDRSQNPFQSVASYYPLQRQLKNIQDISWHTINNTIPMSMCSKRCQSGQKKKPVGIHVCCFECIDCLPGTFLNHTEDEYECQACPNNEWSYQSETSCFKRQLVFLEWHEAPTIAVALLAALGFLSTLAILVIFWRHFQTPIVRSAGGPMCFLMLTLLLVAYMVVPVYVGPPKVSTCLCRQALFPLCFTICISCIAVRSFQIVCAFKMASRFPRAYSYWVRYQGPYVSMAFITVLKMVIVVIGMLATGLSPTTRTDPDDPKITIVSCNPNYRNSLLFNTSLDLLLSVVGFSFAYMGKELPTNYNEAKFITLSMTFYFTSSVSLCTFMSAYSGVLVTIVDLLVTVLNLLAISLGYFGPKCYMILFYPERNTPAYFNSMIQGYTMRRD
T1 sequence (Q7RTX0 21-852): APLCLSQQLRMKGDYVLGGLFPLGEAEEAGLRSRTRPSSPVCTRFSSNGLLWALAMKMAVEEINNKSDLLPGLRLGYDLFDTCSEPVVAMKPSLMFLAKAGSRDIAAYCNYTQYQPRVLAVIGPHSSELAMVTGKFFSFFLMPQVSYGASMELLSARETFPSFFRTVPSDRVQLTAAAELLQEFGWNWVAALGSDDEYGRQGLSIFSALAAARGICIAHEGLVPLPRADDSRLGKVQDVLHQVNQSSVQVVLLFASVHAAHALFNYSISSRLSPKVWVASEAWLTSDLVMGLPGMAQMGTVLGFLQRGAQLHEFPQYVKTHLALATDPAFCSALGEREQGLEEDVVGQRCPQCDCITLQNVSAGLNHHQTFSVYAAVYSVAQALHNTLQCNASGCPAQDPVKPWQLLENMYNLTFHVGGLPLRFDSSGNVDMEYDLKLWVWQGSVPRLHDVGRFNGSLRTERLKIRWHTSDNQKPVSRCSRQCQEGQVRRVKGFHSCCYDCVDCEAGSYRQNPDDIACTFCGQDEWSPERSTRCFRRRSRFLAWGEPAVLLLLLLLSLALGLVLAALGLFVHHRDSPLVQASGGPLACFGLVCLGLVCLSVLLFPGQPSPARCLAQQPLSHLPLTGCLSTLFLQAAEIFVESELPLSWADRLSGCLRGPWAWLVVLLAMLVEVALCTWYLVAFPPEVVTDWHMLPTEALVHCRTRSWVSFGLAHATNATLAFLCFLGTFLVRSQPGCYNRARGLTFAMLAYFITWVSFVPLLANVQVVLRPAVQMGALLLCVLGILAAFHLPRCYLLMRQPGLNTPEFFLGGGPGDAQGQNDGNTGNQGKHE
Method: (§1) The plates were incubated in the tissue culture hood for 20 min to allow cells to settle evenly at the bottom of the microplate and further cultured at 37°C in an atmosphere of 5% CO2 for 18–24 h. The next day, the cells were subjected to functional analysis using DMR. […] When indicated, data for agonist dose-responses were normalized to data obtained with a maximum concentration of sucralose (1 mM) and then fitted and plotted using GraphPad Prism (San Diego, CA) and non-linear regression analysis.
(§2) This value, that we termed pEC50Ratio (sucralose) or pEC50R (sucralose), was calculated with EC50 values obtained in the two assay systems. This transformation also allowed determination of an average and a standard error for the pEC50R (sucralose). The two sets of data (DMR and FLIPR data) were then analyzed with an un-paired t-test (α = 0.05). To calculate relative efficacy bias between the two assays, we captured the top asymptote value from each activity-normalized dose-response curve, as provided by the curve fit, calculated an average and a standard deviation (sd) for each agonist and then analyzed the data pairs with an un-paired t-test (α = 0.05). […] The following steps were followed: 1) Using the PRISM software, we re-analyzed each ligand’s dose-response data obtained in each assay with non-linear regression and the users-defined equation “New Operational Model with TauKa ratios” and retrieved logR values from the fits. 2) Subtracted each ligand’s logR value with that of our standard, the sucralose logR value, obtained from the same data set (each ligand dose-response assay data used in this analysis was accompanied with a sucralose dose-response ran on the same day), producing the ΔlogR value for leach ligand in each assay. 3) Calculated the mean and SEM from ΔlogR replicates (from three to nine independent dose-response analysis, in the two different assays). 4) Calculated ΔΔlogR values by subtracting the averaged ligands’ ΔlogR FLIPR values with the averaged ligands’ ΔlogR DMR values.

[2] = system: parental U2OS cells; experiment: DMR assay on parental U2OS cells (receptor-independent responses); conditions: highest concentration of sucralose (≥2 mM)
Method: as §1, with “DMR. The lidded Epic® 384 microplate and polypropylene compound plate (Corning) were loaded into the carousel of the Epic® reader, the target plate was washed with DMSO matched D-PBS using the Corning Epic® Liquid Handling Accessory (LHA) and equilibrated in 25 μl of DMSO matched D-PBS for 90 min.” for “DMR.”

[3] = target: T2, human sweet taste receptor (hT1R2/hT1R3) coupled to Gα15 (Homo sapiens, UniProt Q7RTX0+Q8TE23); experiment: FLIPR calcium mobilization assay, R2/R3 U2OS cells transduced with Gα15 baculovirus; conditions: for EC50: R2/R3 U2OS cells expressing Gα15
T2 construct: expressed in transfected cells
T2 sequence (Q8TE23 20-839): T1 sequence (Q8TE23 20-839)
T2 sequence (Q7RTX0 21-852): T1 sequence (Q7RTX0 21-852)
Method: The Gα15 coding sequence was inserted in the HindIII-NotI sites and recombinant virus was generated using the Bac-to-Bac system (Life Technologies). Virus was further amplified by propagation in Sf9 cells grown in suspension using Sf900-II media. Virus titers were determined by plaque assay on Sf9 cells.
Cells were gently mixed with the virus at a multiplicity of infection (MOI) of 5. Using a multidrop, 70 μl per well of the cell and virus mixture was dispensed in a 384-well clear bottom plate (Fisher). After 24 h of incubation in a humidified 37°C tissue culture incubator, trichostatin A was added to a final concentration of 0.3 μM and the cells were incubated for another 18–24 h at 34°C. On the day of the experiment, cells were loaded with 4 μM of the calcium indicator Fluo-4 AM (Invitrogen) in D-PBS for 1 h at room temperature. After washing the cells with D-PBS using a cell washer (BioTek) and a 30-minute rest time, the cell plate and the compound plate were transferred into the FLIPR-Tetra (Molecular Devices). […] Loading and the FLIPR assay were run as described above. When indicated, data for agonist dose-responses were normalized to data obtained with a maximum concentration of sucralose (1 mM) and then fitted and plotted using GraphPad Prism (San Diego, CA) and non-linear regression analysis.
as §2

time of peak DMR response post-stimulation ([1]; R2/R3 U2OS cells): ~4 min
EC50 ([1]; R2/R3 U2OS cells, read-out: Activity in DMR assay EC50): 163 µM
EC50 ([1]; R2/R3 U2OS cells, read-out: Activity in DMR assay pEC50 (converted)): 150 µM
dose-response curve's top asymptote in the DMR assay ([1]; relative to response at 1 mM sucralose): around 122%
Activity in DMR assay Emax ([1]; top asymptote of dose-response normalized to 1 mM sucralose): 122
dose-response curve's top asymptote in the FLIPR assay ([3]; Gα15, relative to response at 1 mM sucralose): 104%
Activity in FLIPR assay Emax ([3]; Gα15, top asymptote of dose-response normalized to 1 mM sucralose): 104
EC50 ([3]; read-out: Activity in FLIPR assay EC50): 72 µM
EC50 ([3]; read-out: Activity in FLIPR assay pEC50 (converted)): 69.3 µM
Compound: OC[C@H]1O[C@H](O[C@]2(CCl)O[C@H](CCl)[C@@H](O)[C@@H]2O)[C@H](O)[C@@H](O)[C@H]1Cl [Sucralose]
non-specific DMR effect on parental U2OS cells [2]: 20–40 pm
